The target in series [1] is T1, human MGL (hMGL) (Homo sapiens, UniProt Q99685).
T1 construct: made in house; host or cells: E. coli (lysate)
T1 sequence (Q99685 1-303): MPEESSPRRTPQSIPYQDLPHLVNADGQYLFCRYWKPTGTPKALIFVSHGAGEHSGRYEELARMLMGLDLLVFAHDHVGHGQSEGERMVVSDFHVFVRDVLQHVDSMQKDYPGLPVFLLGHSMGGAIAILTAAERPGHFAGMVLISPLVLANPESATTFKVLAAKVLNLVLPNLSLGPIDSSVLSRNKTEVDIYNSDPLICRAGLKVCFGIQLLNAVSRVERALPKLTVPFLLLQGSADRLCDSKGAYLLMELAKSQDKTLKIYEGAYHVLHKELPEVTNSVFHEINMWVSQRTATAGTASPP
As to the kind of experiment: Fluorescent assay for human MGL inhibition. As to conditions: for hMGL inhibition: at concentrations up to 10 μM, known commercial ligands. The series is classed as biochemical. The method, then:
Fluorescent assay protocol for human MGL. Compound inhibition of hMGL activity was assessed by a fluorometric assay. The assay was carried out in a 96-well plate format and hMGL was monitored by the hydrolysis of the substrate […] or the substrate valeroyl-7-hydroxy-6-methoxy-4-methylcoumarin ester (VHMMCE) to form the fluorescent product, coumarin. Briefly, various concentrations of each compound were preincubated with hMGL (175 ng of total protein in E. coli lysate containing hMGL) for 15 minutes at room temperature. Upon the addition of the substrate, the reaction was incubated at […] for 120 minutes; fluorescence readings were taken every 15 minutes at 360 nm/460 nm (2excitation/λmission) using a Synergy HT Plate Reader (Bio-Tek, Winooski, Vt.). Under the incubation conditions, negligible substrate hydrolysis was observed. External standards were used to convert relative fluorescence units to the amount of 4-methylcoumarin formed. hMGL assays were performed in triplicate for each inhibitor concentration, and IC50 values were determined using Prizm software (FIGS. 1A-1G).

Series [2] addresses T2, hCB1 receptors (Homo sapiens, UniProt P21554).
T2 construct: expressed in transfected cells
As to the kind of experiment: CB1 cAMP assay (inhibition of forskolin-stimulated cAMP accumulation). The series is classed as cell-based. The following applies: for EC50: EC50 of 2-AG + Compound (1 μM), 2-AG in presence of 1 μM compound, forskolin 2 μM, HEK293 and/or CHO hCB1. As for the experimental part: CB1 cAMP assays. Compounds are evaluated for their ability to modulate the actions of orthosteric ligands at CB1 receptor sites. HEK293 and/or CHO cells stably expressing hCB1 receptors were used for the studies. The CAMP assay was carried out using Perkin Elmer's Lance Ultra cAMP kit following the protocol as described in J Biomol Screen 1999, 4, (6), 303-308. The assays are carried out in a 384-well format using 1000-1500 cells/well. The cells are harvested with non-enzymatic cell dissociation reagent Versene, washed once with Hanks' Balanced Salt Solution (HBSS), and resuspended in the stimulation buffer. […] After 30 minutes of stimulation at room temperature, the Eu-CAMP tracer working solution (5 μL) and Ulight-anti-cAMP working solution (5 μL) are added to the plate and incubated at room temperature for 60 minutes. The data are collected via PerkinElmer Envision plate reader. The EC50 values are determined by nonlinear regression analysis using GraphPad Prism software (FIGS. 2A-2H).
(Changes in cAMP serve as a functional read-out for many G protein-coupled receptors.)

For series [3], the target named is human CB1 (hCB1) (Homo sapiens, UniProt P21554). Kind of series: Competition binding assay, [3H]CP55,940 displacement, hCB1 HEK293 membranes. The following applies: up to 100 nM; [3H]CP55,940 0.7 nM; 37 °C, 60 min. The method, then:
Cell membrane preparation. Fresh or frozen HEK293 cell pellets (2×10^8 cells expressing human CB1 (hCB1) or rat CB1 (rCB1)) were resuspended in 5 ml of TME [25 mM Tris, 5 mM MgCl2, 1 mM EDTA pH 7.4] supplemented with 0.5% protease inhibitor cocktail (Sigma, St Louis, MO, USA). Cells were lysed under nitrogen cavitation for 30 min at 1000 psi on ice, centrifuged at 1000 g for 10 min, and the supernatant was collected. The pellet was washed three times with 10 ml of TME containing protease inhibitors and the combined supernatant was centrifuged at 100,000 g for 45 min at 4 °C. The resultant membrane pellet was used immediately or stored at −80 °C. Protein concentration for the resulting membrane fraction was obtained using Bradford Assay.
Competition Binding Assay. Competition binding assays were performed in a 96-well format. Assays were carried out using [3H] CP55,940 and Tris binding buffer (50 mM Tris-HCl, 50 mM Tris-base, 0.1% BSA, pH 7.4), up to a total assay volume of 500 μL. The concentration of [^3H]CP55,940 used in our displacement assays was 0.7 nM. […] Radioactivity was quantified by liquid scintillation spectrometry. […] Ki values were determined by fitting the data to non-linear regression curve using Graph Pad Prism software.

A short description of series [4]: Kinetic aqueous solubility by laser-based nephelometry. The following applies: PBS buffer pH 7.4, 120 min, room temperature; relative to ZCZ011. In kind it is physicochemical. The method, then: Aqueous solubility assays. The kinetic aqueous solubility of the compounds is determined using laser-based nephelometry. Linear serial dilutions of each compound are prepared in PBS buffer (pH=7.4) from DMSO stock solution (10 mM) in a 384-well plate. The compound solutions are mixed and incubated for 120 minutes at room temperature, followed by approximating the precipitation points for each compound using light scattering (laser-based BMG Labtech NEPHELOstar PLUS microplate nephelometer). In some aspects, the final solutions may contain 0 mM, 55 mM, 135 mM, or 500 mM of mannitol.

Setting [5] is: hMGL in E. coli lysate, 15 min preincubation, AHMMCE or VHMMCE substrate, read-out: MGL inhibition IC50.

Experimental findings from patent US20260364098A1, “HETEROARYL COMPOUNDS AS ENDOCANNABINOID SYSTEM MODULATORS AND USES THEREOF” (Northeastern University, priority 2023, published 2026) are described below.

A word on the IC50: it is the concentration at which inhibition is half-maximal. The term EC50 denotes the midpoint of the concentration-response curve.

SMILES strings stand for the structures. Read-outs that look alike come from different tables or passages of the source.

T2 sequence (P21554 whole entry): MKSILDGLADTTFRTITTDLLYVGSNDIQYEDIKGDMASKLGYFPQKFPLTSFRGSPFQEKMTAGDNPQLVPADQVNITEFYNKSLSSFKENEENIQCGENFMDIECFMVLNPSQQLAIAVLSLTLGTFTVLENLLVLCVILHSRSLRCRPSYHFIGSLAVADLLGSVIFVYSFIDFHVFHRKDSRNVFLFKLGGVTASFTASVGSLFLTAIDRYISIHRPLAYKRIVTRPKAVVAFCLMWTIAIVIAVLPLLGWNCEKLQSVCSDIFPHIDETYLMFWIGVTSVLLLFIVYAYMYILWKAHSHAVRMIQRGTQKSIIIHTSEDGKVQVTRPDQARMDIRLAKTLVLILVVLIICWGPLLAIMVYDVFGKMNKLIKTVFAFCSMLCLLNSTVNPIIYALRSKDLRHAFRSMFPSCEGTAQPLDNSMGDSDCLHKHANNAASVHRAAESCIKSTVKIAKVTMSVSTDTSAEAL
Chain of human CB1 (hCB1) (P21554 whole entry): as above

With `O=[N+]([O-])CC(c1ccccc1)c1c(-c2ccccc2)[nH]c2cc(B(O)O)ccc12` (stereo not drawn) [Compound 8, (3-(2-nitro-1-phenylethyl)-2-phenyl-1H-indol-6-yl)boronic acid], the IC50 in series [1] (setting [5]) came out at 46.8 nM. Take `O=[N+]([O-])CC(c1ccccc1)c1c(-c2ccc(S(=O)(=O)F)cc2)[nH]c2ccccc12` (stereo not drawn) [Compound 9, 4-(3-(2-nitro-1-phenylethyl)-1H-indol-2-yl)benzenesulfonyl fluoride]: the concentration for half-maximal inhibition (IC50) in series [1] worked out at 32.3 nM. Take `Cc1ccc2c(C(C[N+](=O)[O-])c3cccs3)c(-c3ccccc3)[nH]c2c1` (stereo not drawn) [ZCZ011, 6-methyl-3-(2-nitro-1-(thiophen-2-yl)ethyl)-2-phenyl-1H-indole, reference compound]: the hMGL inhibition result in series [1] is on record as “did not show any hMGL inhibition at concentrations up to 10 μM”. Same read-out and setting: the value for `O=[N+]([O-])CC(c1ccccc1)c1c(-c2ccccc2)[nH]c2ccccc12` (stereo not drawn) [GAT211, 3-(2-nitro-1-phenylethyl)-2-phenyl-1H-indole, reference compound] was “did not show any hMGL inhibition at concentrations up to 10 μM”. In the case of `O=[N+]([O-])CC(c1ccccc1)c1c(-c2ccc(B(O)O)cc2)[nH]c2ccccc12` (stereo not drawn) [Compound 5, (4-(3-(2-nitro-1-phenylethyl)-1H-indol-2-yl)phenyl)boronic acid], the EC50 in series [2] is 57 nM.

As to `O=[N+]([O-])CC(c1ccc(B(O)O)cc1)c1c(-c2ccccc2)[nH]c2ccccc12` (stereo not drawn) [Compound 1, (4-(2-nitro-1-(2-phenyl-1H-indol-3-yl)ethyl)phenyl)boronic acid], the EC50 in series [2] was determined as 102 nM. Also, the “competition with CP-55,940” value in series [3] is listed as “do not compete with CP-55,940”. Also, in series [1] (setting [5]), the half-maximal inhibitory concentration (IC50) was determined as 63.5 nM. Also, in series [4], the “aqueous solubility compared to ZCZ011” value is given as > 100 fold. Regarding `O=[N+]([O-])CC(c1cccc(B(O)O)c1)c1c(-c2ccccc2)[nH]c2ccccc12` (stereo not drawn) [Compound 4, (3-(2-nitro-1-(2-phenyl-1H-indol-3-yl)ethyl)phenyl)boronic acid], in series [2], the EC50 was 40.8 nM. Also, the “competition with CP-55,940” value in series [3] is on record as “do not compete with CP-55,940”. The IC50 in series [1] (setting [5]) was determined as 979 nM. As for `O=[N+]([O-])CC(c1ccc(B(O)O)cc1)c1c(-c2ccc(N=C=S)cc2)[nH]c2ccccc12` (stereo not drawn) [Compound 6, (4-(1-(2-(4-isothiocyanatophenyl)-1H-indol-3-yl)-2-nitroethyl)phenyl)boronic acid], the EC50 in series [2] is 57.2 nM. Consider `O=[N+]([O-])C[C@H](c1ccc(B(O)O)cc1)c1c(-c2ccccc2)[nH]c2ccccc12` (single isomer, unassigned) [Compound 2], for which, in series [2], the EC50 amounted to 51.3 nM. For the same compound, the half-maximal inhibitory concentration (IC50) in series [1] (setting [5]) was found to be 271 nM.

Take `O=[N+]([O-])CC(c1ccc(N=C=S)cc1)c1c(-c2ccccc2)[nH]c2ccccc12` (stereo not drawn) [Compound 10, 3-(1-(4-isothiocyanatophenyl)-2-nitroethyl)-2-phenyl-1H-indole]: the 50% inhibitory concentration (IC50) in series [1] (setting [5]) turned out to be 1160 nM.

`O=[N+]([O-])C[C@@H](c1ccc(B(O)O)cc1)c1c(-c2ccccc2)[nH]c2ccccc12` (single isomer, unassigned) [Compound 3]: the EC50 in series [2] is 37.5 nM. For the same compound, the “allosteric modulation of 2-AG and CP-55,940 at CB1” value in series [2] (in words) was “positive allosteric modulator of both 2-AG and CP-55,940”. In addition, in series [2] (orthosteric ligand 2-AG, positive allosteric modulator), the “increase of potency of 2-AG at CB1” value is on record as ~ 2 fold. For the same compound, in series [2] (orthosteric ligand CP-55,940, positive allosteric modulator), the “increase of potency of CP-55,940 at CB1” value is ~ 2 fold. Besides, in series [1] (setting [5]), the IC50 was 58.8 nM.
